# Read-outs that look alike come from different tables or passages of the source.
# Tests used:
# [1] = tested on: Staphylococcus aureus; assay: MIC by agar macrodilution (NCCLS), 373 Gram positive isolates, Athens 1998; type: cell-based
# [2] = tested on: Streptococcus pneumoniae; assay: MIC by E-test (broth microdilution for gemifloxacin), 107 pneumococcal carrier isolates, Athens 1998; type: cell-based; settings: for MIC Range: in µg/mL (unit assumed)
# Description: Susceptibility testing was performed by agar dilution or epsilometer method (E-test), as recommended by the NCCLS. […] The susceptibility profiles of the strains were assessed using the Epsilometer method (E-test). The isolates were subdivided into two groups according to their penicillin susceptibility patterns (penicillin-susceptible and penicillin-intermediate.
# [3] = tested on: Enterococcus faecalis; assay: MIC by agar macrodilution (NCCLS), 373 Gram positive isolates, Athens 1998; type: cell-based
# [4] = tested on: Salmonella spp.; assay: MIC by agar dilution (NCCLS M7-A4), 288 enteropathogenic isolates, gemifloxacin and 15 other antimicrobials; type: cell-based
# [5] = tested on: Campylobacter jejuni; assay: as above
# [6] = tested on: Streptococcus pneumoniae; assay: MIC by agar dilution (NCCLS), 411 isolates Buenos Aires 1998-99; type: cell-based; settings: S. pneumoniae
# [7] = tested on: Shigella spp.; assay: MIC by agar dilution (NCCLS M7-A4), 288 enteropathogenic isolates, gemifloxacin and 15 other antimicrobials; type: cell-based; settings: Shigella spp. N= 21
# Description: [A. hydrophila (12), and A. sobria (4)], and 91 Campylobacter jejuni. […] The strains were stored in skimmed-milk at -80 °C until studied.
# The plates were incubated aerobically at 35 °C for 24 h, except for Campylobacter jejuni, where a microaerophilic atmosphere was obtained by using Campy Pack (Becton Dickinson, Cockeysville, MD, USA), and incubation was for 48 h. All organisms were tested with an inoculum of ≅ 10^4 cfu/spot. MICs were defined as the lower antibiotic concentration with no visible growth.
# [8] = tested on: Aeromonas spp.; assay: as above; type: cell-based; settings: Aeromonas spp. N= 16
# [9] = tested on: Hafnia alvei; assay: as above; type: cell-based; settings: Hafnia alvei N= 32
# [10] = tested on: Yersinia enterocolitica; assay: as above; type: cell-based; settings: Yersinia enterocolitica N= 22
# [11] = continuation of the preceding table (title not shown), 14 isolates
compound,measurement,setting,value
CC[C@H]1OC(=O)[C@H](C)[C@@H](O[C@H]2C[C@@](C)(OC)[C@@H](O)[C@H](C)O2)[C@H](C)[C@@H](O[C@@H]2O[C@H](C)C[C@H](N(C)C)[C@H]2O)[C@](C)(OC)C[C@@H](C)C(=O)[C@H](C)[C@@H](O)[C@]1(C)O [Clarithromycin],MIC50,"[1]; Methicillin-susceptible Staphylococcus aureus (n = 85), read-out: MIC50",0.25 µg/mL
same,MIC90,"[1]; Methicillin-susceptible Staphylococcus aureus (n = 85), read-out: MIC90",1 µg/mL
same,MIC50,"[2]; Streptococcus pneumoniae, Penicillin-intermediate S. pneumoniae (n = 24), E-test, read-out: MIC50",0.094 µg/mL
same,MIC90,"[2]; Streptococcus pneumoniae, Penicillin-intermediate S. pneumoniae (n = 24), E-test, read-out: MIC90",≥ 256 µg/mL
same,MIC50,"[2]; Streptococcus pneumoniae, Penicillin-susceptible S. pneumoniae (n = 107), E-test, read-out: MIC50",0.094 µg/mL
same,MIC90,"[2]; Streptococcus pneumoniae, Penicillin-susceptible S. pneumoniae (n = 107), E-test, read-out: MIC90",0.38 µg/mL
CN[C@H](CC(C)C)C(=O)N[C@H]1C(=O)N[C@@H](CC(N)=O)C(=O)N[C@H]2C(=O)N[C@H]3C(=O)N[C@H](C(=O)N[C@H](C(=O)O)c4cc(O)cc(O)c4-c4cc3ccc4O)[C@H](O)c3ccc(c(Cl)c3)Oc3cc2cc(c3O[C@@H]2O[C@H](CO)[C@@H](O)[C@H](O)[C@H]2O[C@H]2C[C@](C)(N)[C@H](O)[C@H](C)O2)Oc2ccc(cc2Cl)[C@H]1O [Vancomycin],MIC Range,[1]; Methicillin-susceptible Staphylococcus aureus (n = 85),0.5 to 2 µg/mL
same,MIC50,[1]; Staphylococcus aureus,1 µg/mL
same,MIC90,[1]; Staphylococcus aureus,2 µg/mL
same,MIC distribution (µg/ml) 0.03,[3],0
same,MIC distribution (µg/ml) 0.06,[3],0
same,MIC distribution (µg/ml) 0.125,[3],0
same,MIC distribution (µg/ml) 0.25,[3],0
same,MIC distribution (µg/ml) 0.5,[3],0
same,MIC distribution (µg/ml) 1,[3],4
same,MIC distribution (µg/ml) 4,[3],6
same,MIC distribution (µg/ml) 8,[3],0
same,MIC distribution (µg/ml) 16,[3],0
same,MIC distribution (µg/ml) ≤0.015,[3],0
same,MIC50,[3]; Enterococcus faecalis,2 µg/mL
same,MIC90,[3]; Enterococcus faecalis,4 µg/mL
same,MIC50,[3]; [11],2 µg/mL
same,MIC90,[3]; [11],4 µg/mL
same,MIC Range,[3]; [11],1 to 4 µg/mL
same,MIC distribution (µg/ml) 1,"[3]; number of isolates at MIC 1 µg/ml, n = 81",10
same,MIC distribution (µg/ml) 4,"[3]; number of isolates at MIC 4 µg/ml, n = 81",40
same,MIC Range,"[2]; Penicillin-intermediate S. pneumoniae (n = 24), E-test",0.19-1.5
same,MIC90,"[2]; Penicillin-intermediate S. pneumoniae (n = 24), E-test, unit assumed",1 µg/mL
same,MIC Range,"[2]; Penicillin-susceptible S. pneumoniae (n = 107), E-test",0.064-2
same,MIC90,[2]; Streptococcus pneumoniae,1 µg/mL
same,MIC50,"[2]; Streptococcus pneumoniae, Penicillin-intermediate S. pneumoniae (n = 24), E-test",0.75 µg/mL
same,MIC50,"[2]; Streptococcus pneumoniae, Penicillin-susceptible S. pneumoniae (n = 107), E-test",0.5 µg/mL
co-trimoxazole,Rates of non-susceptible microorganisms,[4]; Salmonella spp.,4%
same,isolates being resistant,[4]; Salmonella spp.,4%
same,isolates being resistant,[5]; C. jejuni,4%
same,MIC90,[6]; Penicillin intermediate (n = 17),8 µg/mL
same,MIC90,[6]; Penicillin resistant (n = 4),>16 µg/mL
same,MIC90,[6]; Penicillin susceptible (n = 69),8 µg/mL
gentamicin,isolates being resistant,[4]; Salmonella spp.,4%
same,% Susceptible,[4]; Salmonella spp. N= 106,96%
same,MIC (mg/L) 50%,[4]; Salmonella spp. N= 106,0.25 mg/L
same,MIC (mg/L) 90%,[4]; Salmonella spp. N= 106,0.5 mg/L
same,MIC (mg/L) Range,[4]; Salmonella spp. N= 106,0.12 to 128 mg/L
same,% Susceptible,[7],100%
same,MIC (mg/L) 50%,[7],1 mg/L
same,MIC (mg/L) 90%,[7],1 mg/L
same,MIC (mg/L) Range,[7],0.5 to 1 mg/L
same,% Susceptible,[8],100%
same,MIC (mg/L) 50%,[8],0.5 mg/L
same,MIC (mg/L) 90%,[8],1 mg/L
same,MIC (mg/L) Range,[8],0.25 to 1 mg/L
same,% Susceptible,[9],100%
same,MIC (mg/L) 50%,[9],0.25 mg/L
same,MIC (mg/L) 90%,[9],0.5 mg/L
same,MIC (mg/L) Range,[9],0.25 to 0.5 mg/L
same,% Susceptible,[10],100%
same,MIC (mg/L) 50%,[10],1 mg/L
same,MIC (mg/L) 90%,[10],1 mg/L
same,MIC (mg/L) Range,[10],0.5 to 1 mg/L
same,% Susceptible,[5]; Campylobacter jejuni N= 91,100%
same,MIC (mg/L) 50%,[5]; Campylobacter jejuni N= 91,0.25 mg/L
same,MIC (mg/L) 90%,[5]; Campylobacter jejuni N= 91,0.5 mg/L
same,MIC (mg/L) Range,[5]; Campylobacter jejuni N= 91,0.12 to 1 mg/L
